The values that follow come from patent US8618163B2, “Derivatives of cycloalkyl- and cycloalkenyl-1,2-dicarboxylic acid compounds having formyl peptide receptor like-1 (FPRL-1) agonist or antagonist activity” (Allergan, Inc., priority 2010, dated 2013).

Where two headings read alike, the source gives them in different places.

One test has as its target T1, FPRL1 (Homo sapiens, UniProt P25090).
T1 construct: expressed in transfected cells; host or cells: CHO-Gal6 (CHO cells with G alpha 16)
T1 sequence (P25090 1-351): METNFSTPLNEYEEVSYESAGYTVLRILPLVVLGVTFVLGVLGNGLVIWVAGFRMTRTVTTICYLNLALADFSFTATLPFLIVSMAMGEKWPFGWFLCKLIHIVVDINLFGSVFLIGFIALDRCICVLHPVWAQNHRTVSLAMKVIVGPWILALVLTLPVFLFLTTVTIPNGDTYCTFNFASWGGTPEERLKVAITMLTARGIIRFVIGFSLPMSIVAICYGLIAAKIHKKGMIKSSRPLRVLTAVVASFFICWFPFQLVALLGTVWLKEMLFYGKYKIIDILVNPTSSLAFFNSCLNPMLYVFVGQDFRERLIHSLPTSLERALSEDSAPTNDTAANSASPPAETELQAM
Put plainly: compound-induced calcium activity on FLIPR Tetra in CHO-Gal6 cells stably expressing FPRL1. Type of test: cell-based. The conditions noted are these: for EC50: read-out: FPRL1 EC50; for FPRL1 (rel. eff.): relative efficacy. How it is done: (§1) CHO-Gal6 cells stably expressing FPRL1 were cultured in (F12, 10% FBS, 1% PSA, 400 μg/ml geneticin and 50 μg/ml hygromycin) and HEK-Gqi5 cells stable expressing FPR1 were cultured in (DMEM high glucose, 10% FBS, 1% PSA, 400 μg/ml geneticin and 50 μg/ml hygromycin). In general, the day before the experiment, 18,000 cells/well were plated in a 384-well clear bottom poly-d-lysine coated plate. The following day the screening compound-induced calcium activity was assayed on the FLIPR^Tetra. The drug plates were prepared in 384-well microplates using the EP3 and the MultiPROBE robotic liquid handling systems. Compounds were tested at concentrations ranging from 0.61 to 10,000 nM. Results are expressed as EC50 (nM) and efficacy values.

The target of the next test is T2, FPR1 (Homo sapiens, UniProt P21462).
T2 construct: expressed in transfected cells; host or cells: HEK-Gqi5 (HEK cells with chimeric G protein Gqi5)
T2 sequence (P21462 1-350): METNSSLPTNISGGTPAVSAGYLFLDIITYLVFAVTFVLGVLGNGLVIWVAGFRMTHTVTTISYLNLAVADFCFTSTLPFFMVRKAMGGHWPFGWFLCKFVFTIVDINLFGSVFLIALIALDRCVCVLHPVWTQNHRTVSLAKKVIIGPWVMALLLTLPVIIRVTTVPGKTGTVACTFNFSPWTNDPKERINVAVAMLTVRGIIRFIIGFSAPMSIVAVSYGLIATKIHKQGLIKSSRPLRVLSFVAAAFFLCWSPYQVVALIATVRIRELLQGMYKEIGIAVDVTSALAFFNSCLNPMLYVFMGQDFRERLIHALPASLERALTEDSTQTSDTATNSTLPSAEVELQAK
Description: compound-induced calcium activity on FLIPR Tetra in HEK-Gqi5 cells stable expressing FPR1. The format is cell-based. On the set-up: FPR1 (rel. eff.): scale not given here. As to conditions: for FPR1 (rel. eff.): relative efficacy. The procedure: as §1

The mark [1] stands for this setting: calcium, FLIPR Tetra, tested 0.61 to 10,000 nM.
[2] abbreviates: class symbol NA, read-out: FPR1 EC50 (NA = Not Active).
[3] abbreviates: cells printed in μM, read-out: FPR1 EC50.

Regarding `CCc1ccc(NC(=O)[C@H]2[C@@H](C(=O)O)[C@H]3CC[C@@H]2C32CC2)cc1` (racemic) [Compound 40, (+/−)-(1R,2S,3R,4S)-3-((4-Ethylphenyl)carbamoyl)spiro[bicyclo[2.2.1]heptane-7,1′-cyclopropane]-2-carboxylic Acid], the EC50 at FPRL1 (setting [1]) is 0.016 µM; at FPR1 (setting [2]) it was above 10 µM. In addition, the “FPRL1 (rel. eff.)” value at FPRL1 (calcium, FLIPR Tetra) came to 0.79.
In the case of `O=C(O)[C@@H]1[C@H](C(=O)Nc2ccc(OC(F)(F)F)cc2)[C@@H]2CC[C@H]1C21CC1` (racemic) [Compound 41, (+/−)-(1R,2S,3R,4S)-3-((4-(Trifluoromethoxy)phenyl)carbamoyl)spiro-[bicyclo[2.2.1]heptane-7,1′-cyclopropane]-2-carboxylic Acid], the EC50 at FPRL1 (setting [1]) is 0.123 µM; on FPR1 (setting [2]) it was above 10 µM. In addition, on FPRL1 (calcium, FLIPR Tetra), the “FPRL1 (rel. eff.)” value was determined as 0.80.
Take `CSc1ccc(NC(=O)[C@H]2[C@@H](C(=O)O)[C@H]3CC[C@@H]2C32CC2)cc1` (racemic) [Compound 42, (+/−)-(1R,2S,3R,4S)-3-((4-(Methylthio)phenyl)carbamoyl)spiro[bicyclo-[2.2.1]heptane-7,1′-cyclopropane]-2-carboxylic Acid]: the EC50 on FPRL1 (setting [1]) turned out to be 0.007 µM; on FPR1 (calcium, FLIPR Tetra, tested 0.61 to 10,000 nM, read-out: FPR1 EC50), 1.1 µM. The “FPRL1 (rel. eff.)” value at FPRL1 (calcium, FLIPR Tetra) came to 0.96. Besides, the “FPR1 (rel. eff.)” value at FPR1 (calcium, FLIPR Tetra) is 0.23.
Regarding `CC(=O)c1ccc(NC(=O)[C@H]2[C@@H](C(=O)O)[C@H]3CC[C@@H]2C32CC2)cc1` (racemic) [Compound 43, (+/−)-(1S,2R,3S,4R)-2-((4-Acetylphenyl)carbamoyl)spiro[bicyclo[2.2.1]heptane-7,1′-cyclopropane]-3-carboxylic Acid], the results for the EC50 at FPRL1 (setting [1]) and on FPR1 (setting [3]) were 0.049 µM and above 10 µM, respectively. The “FPRL1 (rel. eff.)” value on FPRL1 (calcium, FLIPR Tetra) amounted to 0.71. Besides, the “FPR1 (rel. eff.)” value on FPR1 (calcium, FLIPR Tetra) turned out to be 0.50.
For `C[S+]([O-])c1ccc(NC(=O)C2C(C(=O)O)C3CCC2C32CC2)cc1` (racemic) [Compound 44, (+/−)-(1R,2S,3R,4S)-3-((4-(Methylsulfinyl)phenyl)carbamoyl)spiro[bicyclo-[2.2.1]heptane-7,1′-cyclopropane]-2-carboxylic Acid], the figures for the EC50 at FPRL1 (setting [1]) and at FPR1 (setting [2]) were 0.475 µM and above 10 µM, respectively. Besides, the “FPRL1 (rel. eff.)” value at FPRL1 (calcium, FLIPR Tetra) amounted to 0.95.
Regarding `NC(=O)C1C(C(=O)Nc2ccc(Br)cc2)C2CCC1C21CC1` (racemic) [Compound 46A], the EC50 on FPRL1 (setting [1]) was 6.52 µM; on FPR1 (setting [2]) it was above 10 µM. For the same molecule, the “FPRL1 (rel. eff.)” value at FPRL1 (calcium, FLIPR Tetra) was found to be 0.85.
`NC(=O)C1C(C(=O)Nc2ccc(Br)cc2)C2CCC1C21CC1` (racemic) [Compound 46B]: the EC50 on FPRL1 (setting [1]) is below 0.001 µM; on FPR1 (setting [3]) it was above 40 µM. Moreover, the “FPRL1 (rel. eff.)” value at FPRL1 (calcium, FLIPR Tetra) was 0.91. The “FPR1 (rel. eff.)” value on FPR1 (calcium, FLIPR Tetra) is given as 0.30.
For `CCc1ccc(NC(=O)C2C(C(N)=O)C3C=CC2C32CC2)cc1` (racemic) [Compound 48, (+/−)-(1R,4S,5R,6S)—N-5-(4-Ethylphenyl)spiro[bicyclo[2.2.1]hept[2]ene-7,1′-cyclopropane]-5,6-dicarboxamide], the EC50 on FPRL1 (setting [1]) was 0.051 µM; on FPR1 (setting [2]) it was above 10 µM. Besides, the “FPRL1 (rel. eff.)” value on FPRL1 (calcium, FLIPR Tetra) came out at 0.79.
For the molecule `CSc1ccc(NC(=O)C2C(C(N)=O)C3C=CC2C32CC2)cc1` (racemic) [Compound 49, (+/−)-(1R,4S,5R,6S)—N-5-(4-(Methylthio)phenyl)spiro[bicyclo[2.2.1]hept[2]ene-7,1′-cyclopropane]-5,6-dicarboxamide], the EC50 at FPRL1 (setting [1]) is 0.097 µM; at FPR1 (setting [2]) it was above 10 µM. Also, the “FPRL1 (rel. eff.)” value on FPRL1 (calcium, FLIPR Tetra) came to 0.90.
As for `NC(=O)C1C(C(=O)Nc2ccc(I)cc2)C2C=CC1C21CC1` (racemic) [Compound 50, (+/−)-(1R,4S,5R,6S)—N-5-(4-Iodophenyl)spiro[bicyclo[2.2.1]hept[2]ene-7,1′-cyclopropane]-5,6-dicarboxamide], the figures for the 50% effective concentration (EC50) at FPRL1 (setting [1]) and at FPR1 (setting [2]) were 0.0018 µM and above 10 µM, respectively. Further, the “FPRL1 (rel. eff.)” value at FPRL1 (calcium, FLIPR Tetra) turned out to be 0.85.
Consider `NC(=O)[C@@H]1[C@H](C(=O)Nc2ccc(I)cc2)[C@@H]2CC[C@H]1C21CC1` (racemic) [Compound 51, (+/−)-(1S,2R,3S,4R)—N2-(4-Iodophenyl)spiro[bicyclo[2.2.1]heptane-7,1′-cyclopropane]-2,3-dicarboxamide], for which the EC50 was below 0.0048 µM on FPRL1 (setting [1]) and above 10 µM on FPR1 (setting [2]). Moreover, the “FPRL1 (rel. eff.)” value at FPRL1 (calcium, FLIPR Tetra) is 0.87.
The like results for `CCc1ccc(NC(=O)[C@H]2[C@@H](C(N)=O)[C@H]3CC[C@@H]2C32CC2)cc1` (racemic) [Compound 52, (+/−)-(1S,2R,3S,4R)—N^2-(4-Ethylphenyl)spiro[bicyclo[2.2.1]heptane-7,1′-cyclopropane]-2,3-dicarboxamide] were, in that order, 0.033 µM, above 10 µM and 0.97.
As for `CSc1ccc(NC(=O)[C@H]2[C@@H](C(N)=O)[C@H]3CC[C@@H]2C32CC2)cc1` (racemic) [Compound 53, (+/−)-(1S,2R,3S,4R)—N2-(4-(Methylthio)phenyl)spiro[bicyclo[2.2.1]heptane-7,1′-cyclopropane]-2,3-dicarboxamide], the EC50 on FPRL1 (setting [1]) was 0.015 µM; on FPR1 (setting [2]), above 10 µM. Also, at FPRL1 (calcium, FLIPR Tetra), the “FPRL1 (rel. eff.)” value was found to be 0.86.
Take `CC1(C)[C@@H]2CC[C@H]1[C@@H](C(=O)Nc1ccc(I)cc1)[C@H]2C(N)=O` (racemic) [Compound 55, (+/−)-(1S,2R,3S,4R)—N2-(4-Iodophenyl)-7,7-dimethylbicyclo[2.2.1]heptane-2,3-dicarboxamide]: the “FPRL1 (rel. eff.)” value on FPRL1 (calcium, FLIPR Tetra) was 0.81. Besides, the EC50 at FPR1 (setting [2]) is above 10 µM.
Consider `CSc1ccc(NC(=O)[C@H]2[C@@H](C(N)=O)[C@H]3CC[C@@H]2C3(C)C)cc1` (racemic) [Compound 56, (+/−)-(1S,2R,3S,4R)-7,7-Dimethyl-N2-(4-(methylthio)phenyl)bicyclo[2.2.1]heptane-2,3-dicarboxamide], for which the “FPRL1 (rel. eff.)” value at FPRL1 (calcium, FLIPR Tetra) is listed as “ND (0.96)”. Moreover, on FPR1 (setting [2]), the EC50 is above 10 µM.
Regarding `CCc1ccc(NC(=O)[C@H]2[C@@H](C(N)=O)[C@H]3CC[C@@H]2C3(C)C)cc1` (racemic) [Compound 57, (+/−)-(1S,2R,3S,4R)—N2-(4-Ethylphenyl)-7,7-dimethylbicyclo[2.2.1]heptane-2,3-dicarboxamide], the EC50 at FPRL1 (setting [1]) is 0.035 µM; on FPR1 (setting [2]), above 10 µM. Besides, the “FPRL1 (rel. eff.)” value on FPRL1 (calcium, FLIPR Tetra) is 0.95.
For the molecule `O=C(Nc1ccc(Br)cc1)C1C(CO)C2C=CC1C21CC1` (racemic) [Compound 58, (+/−)-(1R,4S,5R,6S)—N-(4-Bromophenyl)-6-(hydroxymethyl)spiro[bicyclo[2.2.1]-hept[2]ene-7,1′-cyclopropane]-5-carboxamide], the EC50 is 0.229 µM on FPRL1 (setting [1]) and above 10 µM on FPR1 (setting [2]). The “FPRL1 (rel. eff.)” value on FPRL1 (calcium, FLIPR Tetra) is recorded as 0.91.
Regarding `O=C(Nc1ccc(Br)cc1)[C@H]1[C@@H](CO)[C@H]2CC[C@@H]1C21CC1` (racemic) [Compound 59, (+/−)-(1S,2R,3S,4R)—N-(4-Bromophenyl)-3-(hydroxymethyl)spiro[bicyclo[2.2.1]-heptane-7,1′-cyclopropane]-2-carboxamide], the EC50 at FPRL1 (in μM) and at FPR1 (setting [2]) was above 10 µM throughout. On FPRL1 (calcium, FLIPR Tetra), the “FPRL1 (rel. eff.)” value is 0.76.
As for `CC1(C)C2CCC1C(C(=O)Nc1ccc(I)cc1)C2C(N)=O` (racemic) [Compound 61, (+/−)-(1S,2R,3S,4R)—N^2-(4-Iodophenyl)-7,7-dimethylbicyclo[2.2.1]heptanes-2,3-dicarboxamide], the “FPRL1 (rel. eff.)” value at FPRL1 (calcium, FLIPR Tetra) amounted to 0.82. The EC50 at FPR1 (setting [2]) is above 10 µM.
As for `NC(=O)[C@@H]1[C@H](C(=O)Nc2ccc(I)cc2)[C@@H]2CC[C@H]1C21CC1` (racemic) [Compound 62, (+/−)-(1S,2R,3S,4R)—N^2-(4-Iodophenyl)-[bicyclo[2.2.1]heptane-7,1′-cyclopropane]-2,3-dicarboxamide], the concentration for a half-maximal effect (EC50) is 0.005 µM at FPRL1 (setting [1]) and above 10 µM on FPR1 (setting [2]). In addition, at FPRL1 (calcium, FLIPR Tetra), the “FPRL1 (rel. eff.)” value turned out to be 0.89.
`CSc1ccc(NC(=O)C2C(C(N)=O)C3C=CC2C32CC2)cc1` (racemic) [Compound 63, (+/−)-(1R,4S,5R,6S)—N^5-(4-(Methylthio)phenyl)spiro[bicyclo[2.2.1]hept[2]ene-7,1′-cyclopropane]-5,6-dicarboxamide]: the EC50 is 0.0966 µM on FPRL1 (setting [1]) and above 10 µM at FPR1 (setting [2]). Besides, the “FPRL1 (rel. eff.)” value on FPRL1 (calcium, FLIPR Tetra) is listed as 0.9.
